What was measured:
[1] = Hydrodynamic size assay (dynamic light scattering); type: physicochemical
Description: The dilution was carried out to yield approximately 20,000 counts per second during the DLS measurement and the sample was allowed to equilibrate for 10 minutes in the instrument prior to data collection.

[2] = tested on: MATBIII breast cancer cells; experiment: Dynamic contrast enhanced MR tumor imaging in MATBIII tumor bearing mice; type: in vivo, SCID mice; settings: DCE MR, dose 0.2 mmol/kg Gd, Fe, mammary MBIII rodent tumor model
Description: Cell Preparation: MATBIII breast cells (available from ATCC®) were trypsinized using 1× trypsin-EDTA. The cells were washed using IX phosphate buffered saline (PBS) and aliquots of 2×10^6 cells were made in 1×PBS (100 uL). Prior to injection into the subject, 50 μL of basement membrane matrix (Matrigel®, BD Biosciences) was added to each aliquot.
Tumor Induction: All procedures involving animals were completed under protocols approved by the GE Global Research Institutional Animal Care and Use Committee. Female, 5-7 weeks old, SCID mice (Charles River Laboratories) were briefly anesthetized with 2% isoflurane and injected with 1×10^6 MATBIII breast cancer cells in 1×PBS (100 μL) and Matrigel SC to their left flank. The animals were monitored for 7 days post tumor cell injections at which point, precontrast agent MR images of the resulting lesions, typically 1 cm in diameter, were collected using the sequences described below.

Agent size (hydrodynamic diameter) [1]: Magnevist - Gd (1 nm)
SMILES: CNC[C@H](O)[C@@H](O)[C@H](O)[C@H](O)CO.CNC[C@H](O)[C@@H](O)[C@H](O)[C@H](O)CO.O=C([O-])CN(CCN(CC(=O)[O-])CC(=O)O)CCN(CC(=O)[O-])CC(=O)O.[Gd+3] [Magnevist - Gd]
Tumor-to-muscle signal enhancement ratio (Tumor: Muscle), Average [2]: 3.6
